Laboratory results published in patent US20150023989A1, “NEW ANTIBODY DRUG CONJUGATES (ADCS) AND THE USE THEREOF” (SEATTLE GENETICS, INC., priority 2011, published 2015).
Counter-ions that a name gives are not always drawn. Where a SMILES comes first, the peptide text is derived from it. [ ]: non-standard residue; d: D form. The star is where a group is joined. X2 = CC(C)[C@@H](C(=O)*)N(C)CCCCCCN1C(=O)CC(SC[C@H](N)C(=O)O)C1=O; X3 = CC(C)[C@@H](C(=O)*)N(C)CCOCCOCCOCCC(=O)NCCCC[C@H](N)C(=O)O; X1 = CC(C)[C@@H](C(=O)*)N(C)CCCCCC(=O)NCCCC[C@H](N)C(=O)O; Dolaproine = CO[C@@H]([C@@H]1CCCN1)[C@@H](C)C(=O)O; Dil = CC[C@H](C)[C@H](NC)[C@@H](CC(=O)O)OC; X4 = C[C@@H](N*)[C@@H](O)c1ccccc1; Oxazinan2yl(1,2) = C1CCN(*)OC1; NMeV = CN[C@H](C(=O)O)C(C)C

Tests used:
[1] = Flux assay using Caco-2 cells (cell permeability); type: in vitro ADME; details: human, 2 hours incubation
Description: (§1) The cell permeability of a substance can be investigated by means of in vitro testing in a flux assay using Caco-2 cells [M. D. Troutman and D. R. Thakker, Pharm. Res. 20 (8), 1210-1224 (2003)]. For this purpose, the cells were cultured for 15-16 days on 24-well filter plates. For the determination of permeation, the respective working example was applied in a HEPES buffer to the cells either apically (A) or basally (B) and incubated for 2 hours. After 0 hours and after 2 hours, samples were taken from the cis and trans compartments. The samples were separated by HPLC (Agilent 1200, Böblingen, Germany) using reverse phase columns. The HPLC system was coupled via a Turbo Ion Spray Interface to a Triple Quadropol mass spectrometer API 4000 (Applied Biosystems Applera, Darmstadt, Germany). The permeability was evaluated on the basis of a Papp value, which was calculated using the formula published by Schwab et al. [D. Schwab et al., J. Med. Chem. 46, 1716-1725 (2003)].

tubulin = test: Fluorescence-based microtubule polymerisation assay; type: biochemical; details: rate at 1 μM MMAF set at 100%
Description: Tubulin polymerization was investigated using the “Fluorescence-based Microtubule Polymerisation Assay Kit” from Cytoskeleton (Denver, Colo., USA; order number: BK011). With this assay, GTP is added to unpolymerized tubulin, allowing polymerization to take place spontaneously. The assay is based on the binding of the fluorophore 4′,6-diamidino-2-phenylindole (DAPI) to tubulin. Free and bound DAPI can be differentiated on the basis of different emission spectra.
In addition to the buffer control, paclitaxel, with a polymerization-increasing effect, and vinblastin, with a polymerization inhibiting effect, were run additionally as assay controls. Measurement was carried out using 96-well plates with a half base area. The kinetics of the tubulin polymerization were monitored in a Fluorimeter at 37° C. for 1 hour. The excitation wavelength was 355 nm, and emission was monitored at 460 nm. For the region of linear increase within the first 10 minutes, a calculation was made of the change in fluorescence per minute (ΔF/min), which represents the polymerization rate of the microtubuli. The potency of the test substances was quantified on the basis of their respective reduction of the polymerization rate. Table 6 below gives data for the influence of representative working examples on tubulin polymerization.

Caco-2 cells = test: Flux assay using Caco-2 cells (cell permeability); type: in vitro ADME; details: 2 hours incubation
Description: as §1

Structure (SMILES) | Papp B→A at 2 h [1] [×10⁻⁶ cm/s] | Tubulin polymerization in the presence of toxophore (tubulin; toxophore 1 μM) [%] | Tubulin polymerization in the presence of toxophore (tubulin; toxophore 10 μM) [%] | Papp (B-A) (Caco-2 cells) [×10⁻⁶ cm/s]
CC[C@H](C)[C@@H]([C@@H](CC(=O)N1CCC[C@H]1[C@H](OC)[C@@H](C)C(=O)N[C@@H](Cc1c[nH]c2ccccc12)C(=O)N1CCCCO1)OC)N(C)C(=O)[C@@H](NC(=O)[C@H](C(C)C)N(C)CCCCCC(=O)NCCCC[C@H](N)C(=O)O)C(C)C [Example 18, N-(6-{[(5S)-5-Amino-5-carboxypentyl]amino}-6-oxohexyl)-N-methyl-L-valyl-N-[(3R,4S,5S)-1-{(2S)-2-[(1R,2R)-3-{[(2S)-3-(1H-indol-3-yl)-1-(1,2-oxazinan-2-yl)-1-oxopropan-2-yl]amino}-1-methoxy-2-methyl-3-oxopropyl]pyrrolidin-1-yl}-3-methoxy-5-methyl-1-oxoheptan-4-yl]-N-methyl-L-valinamide trifluoroacetate] (X1-V[Dil][Dolaproine]W-{Oxazinan2yl(1,2)}) | 0.2 | 45 | 1 | –
CC[C@H](C)[C@@H]([C@@H](CC(=O)N1CCC[C@H]1[C@H](OC)[C@@H](C)C(=O)N[C@@H](Cc1c[nH]c2ccccc12)C(=O)O)OC)N(C)C(=O)[C@@H](NC(=O)[C@H](C(C)C)N(C)CCCCCC(=O)NCCCC[C@H](N)C(=O)O)C(C)C [Example 19, N-(6-{[(5S)-5-Amino-5-carboxypentyl]amino}-6-oxohexyl)-N-methyl-L-valyl-N-[(3R,4S,5S)-1-{(2S)-2-[(1R,2R)-3-{[(1S)-1-carboxy-2-(1H-indol-3-yl)ethyl]amino}-1-methoxy-2-methyl-3-oxopropyl]pyrrolidin-1-yl}-3-methoxy-5-methyl-1-oxoheptan-4-yl]-N-methyl-L-valinamide] (X1-V[Dil][Dolaproine]W-OH) | 0.1 | 80 | 14 | –
CC[C@H](C)[C@@H]([C@@H](CC(=O)N1CCC[C@H]1[C@H](OC)[C@@H](C)C(=O)N[C@@H](Cc1c[nH]c2ccccc12)C(=O)N1CCCCO1)OC)N(C)C(=O)[C@@H](NC(=O)[C@H](C(C)C)N(C)CCOCCOCCOCCC(=O)NCCCC[C@H](N)C(=O)O)C(C)C [Example 20, N-[(18S)-18-Amino-18-carboxy-12-oxo-3,6,9-trioxa-13-azaoctadec-1-yl]-N-methyl-L-valyl-N-[(3R,4S,5S)-1-{(2S)-2-[(1R,2R)-3-{[(2S)-3-(1H-indol-3-yl)-1-(1,2-oxazinan-2-yl)-1-oxopropan-2-yl]amino}-1-methoxy-2-methyl-3-oxopropyl]pyrrolidin-1-yl}-3-methoxy-5-methyl-1-oxoheptan-4-yl]-N-methyl-L-valinamide trifluoroacetate] (X3-V[Dil][Dolaproine]W-{Oxazinan2yl(1,2)}) | – | 60 | 0 | –
CC[C@H](C)[C@@H]([C@@H](CC(=O)N1CCC[C@H]1[C@H](OC)[C@@H](C)C(=O)N[C@@H](Cc1c[nH]c2ccccc12)C(N)=O)OC)N(C)C(=O)[C@@H](NC(=O)[C@H](C(C)C)N(C)CCCC(=O)NNC(=O)CCCCCN1C(=O)CC(SC[C@H](N)C(=O)O)C1=O)C(C)C (stereo partly drawn) [Example 21, N-(4-{2-[6-(3-{[(2R)-2-Amino-2-carboxyethyl]sulphanyl}-2,5-dioxopyrrolidin-1-yl)hexanoyl]hydrazino}-4-oxobutyl)-N-methyl-L-valyl-N-[(3R,4S,5S)-1-{(2S)-2-[(1R,2R)-3-{[(2S)-1-amino-3-(1H-indol-3-yl)-1-oxopropan-2-yl]amino}-1-methoxy-2-methyl-3-oxopropyl]pyrrolidin-1-yl}-3-methoxy-5-methyl-1-oxoheptan-4-yl]-N-methyl-L-valinamide] | 0.2 | 88 | 25 | –
CC[C@H](C)[C@@H]([C@@H](CC(=O)N1CCC[C@H]1[C@H](OC)[C@@H](C)C(=O)N[C@@H](Cc1c[nH]c2ccccc12)C(=O)O)OC)N(C)C(=O)[C@@H](NC(=O)[C@H](C(C)C)N(C)CCCCCCN1C(=O)CC(SC[C@H](N)C(=O)O)C1=O)C(C)C (stereo partly drawn) [Example 23, N-[6-(3-{[(2R)-2-Amino-2-carboxyethyl]sulphanyl}-2,5-dioxopyrrolidin-1-yl)hexyl]-N-methyl-L-valyl-N-[(3R,4S,5S)-1-{(2S)-2-[(1R,2R)-3-{[(1S)-1-carboxy-2-(1H-indol-3-yl)ethyl]amino}-1-methoxy-2-methyl-3-oxopropyl]pyrrolidin-1-yl}-3-methoxy-5-methyl-1-oxoheptan-4-yl]-N-methyl-L-valinamide] (X2-V[Dil][Dolaproine]W-OH) | 0.1 | – | – | –
CC[C@H](C)[C@@H]([C@@H](CC(=O)N1CCC[C@H]1[C@H](OC)[C@@H](C)C(=O)N[C@@H](Cc1c[nH]c2ccccc12)C(=O)N1CCCCO1)OC)N(C)C(=O)[C@@H](NC(=O)[C@H](C(C)C)N(C)CCCCCCN1C(=O)CC(SC[C@H](N)C(=O)O)C1=O)C(C)C (stereo partly drawn) [Example 24, N-[6-(3-{[(2R)-2-Amino-2-carboxyethyl]sulphanyl}-2,5-dioxopyrrolidin-1-yl)hexyl]-N-methyl-L-valyl-N-[(3R,4S,5S)-1-{(2S)-2-[(1R,2R)-3-{[(2S)-3-(1H-indol-3-yl)-1-(1,2-oxazinan-2-yl)-1-oxopropan-2-yl]amino}-1-methoxy-2-methyl-3-oxopropyl]pyrrolidin-1-yl}-3-methoxy-5-methyl-1-oxoheptan-4-yl]-N-methyl-L-valinamide] (X2-V[Dil][Dolaproine]W-{Oxazinan2yl(1,2)}) | – | 121 | 35 | –
CC[C@H](C)[C@@H]([C@@H](CC(=O)N1CCC[C@H]1[C@H](OC)[C@@H](C)C(=O)N[C@@H](Cc1ccc(O)cc1)C(=O)N1CCCCO1)OC)N(C)C(=O)[C@@H](NC(=O)[C@H](C(C)C)N(C)CCCCCC(=O)NCCCC[C@H](N)C(=O)O)C(C)C [Example 36, N-(6-{[(5S)-5-Amino-5-carboxypentyl]amino}-6-oxohexyl)-N-methyl-L-valyl-N-[(3R,4S,5S)-1-{(2S)-2-[(1R,2R)-3-{[(2S)-3-(4-hydroxyphenyl)-1-(1,2-oxazinan-2-yl)-1-oxopropan-2-yl]amino}-1-methoxy-2-methyl-3-oxopropyl]pyrrolidin-1-yl}-3-methoxy-5-methyl-1-oxoheptan-4-yl]-N-methyl-L-valinamide trifluoroacetate] (X1-V[Dil][Dolaproine]Y-{Oxazinan2yl(1,2)}) | 0.15 | – | – | –
CC[C@H](C)[C@@H]([C@@H](CC(=O)N1CCC[C@H]1[C@H](OC)[C@@H](C)C(=O)N[C@@H](Cc1ccc(O)cc1)C(=O)O)OC)N(C)C(=O)[C@@H](NC(=O)[C@H](C(C)C)N(C)CCCCCC(=O)NCCCC[C@H](N)C(=O)O)C(C)C [Example 37, N-(6-{[(5S)-5-Amino-5-carboxypentyl]amino}-6-oxohexyl)-N-methyl-L-valyl-N-[(3R,4S,5S)-1-{(2S)-2-[(1R,2R)-3-{[(1S)-1-carboxy-2-(4-hydroxyphenyl)ethyl]amino}-1-methoxy-2-methyl-3-oxopropyl]pyrrolidin-1-yl}-3-methoxy-5-methyl-1-oxoheptan-4-yl]-N-methyl-L-valinamide trifluoroacetate] (X1-V[Dil][Dolaproine]Y-OH) | 0.09 | – | – | –
CC[C@H](C)[C@@H]([C@@H](CC(=O)N1CCC[C@H]1[C@H](OC)[C@@H](C)C(=O)N[C@H](C)[C@@H](O)c1ccccc1)OC)N(C)C(=O)[C@@H](NC(=O)[C@@H](NC)C(C)C)C(C)C [monomethylauristatin E (MMAE), monomethylauristatin E, reference compound] (H-[NMeV]V[Dil][Dolaproine]-X4) | – | – | – | 7.3
CC[C@H](C)[C@@H]([C@@H](CC(=O)N1CCC[C@H]1[C@H](OC)[C@@H](C)C(=O)N[C@@H](Cc1ccccc1)C(=O)O)OC)N(C)C(=O)[C@@H](NC(=O)[C@@H](NC)C(C)C)C(C)C [monomethylauristatin F (MMAF), monomethylauristatin F, reference compound] (H-[NMeV]V[Dil][Dolaproine]F-OH) | – | 100 | 34 | 7.3
